IC50 data for 20 compounds are collected here from US9034884B2, “Heterocyclic-substituted pyrrolopyridines and pyrrolopyrimidines as JAK inhibitors” (Incyte Corporation, priority 2010, dated 2015).

For test [1], the target named is T1, JAK2 (a.a. 828-1132) catalytic domain (Homo sapiens, UniProt O60674).
T1 construct: JAK2 (a.a. 828-1132); His tag (N); made in house; host or cells: insect cells (baculovirus)
In words: In vitro JAK kinase assay (HTRF, phosphorylation of biotinylated peptide), JAK2. The following applies: Table A; ATP 1 mM. Type of test: biochemical. The protocol:
Compounds herein were tested for inhibitory activity of JAK targets according to the following in vitro assay described in Park et al., Analytical Biochemistry 1999, 269, 94-104. The catalytic domains of human JAK1 (a.a. 837-1142) and JAK2 (a.a. 828-1132) with an N-terminal His tag were expressed using baculovirus in insect cells and purified. The catalytic activity of JAK1 and JAK2 was assayed by measuring the phosphorylation of a biotinylated peptide. The phosphorylated peptide was detected by homogenous time resolved fluorescence (HTRF). […] For the 1 mM IC50 measurements, ATP concentration in the reactions was 1 mM. Reactions were carried out at room temperature for 1 hour and then stopped with 20 μL 45 mM EDTA, 300 nM SA-APC, 6 nM Eu-Py20 in assay buffer (Perkin Elmer, Boston, Mass.). Binding to the Europium labeled antibody took place for 40 minutes and HTRF signal was measured on a Fusion plate reader (Perkin Elmer, Boston, Mass.). See Tables A and B for data related to compounds of the invention (at 1 mM). Data is indicated as ranges, wherein “+” is less than 5 nM; “++” is 5 nM to 25 nM; “+++” is greater than 25 nM to 100 nM; and “++++” is greater than 100 nM.

Test [2] has as its target T2, human JAK1 (a.a. 837-1142) catalytic domain (Homo sapiens, UniProt P23458).
T2 construct: human JAK1 (a.a. 837-1142); His tag (N); made in house; host or cells: insect cells (baculovirus)
In words: In vitro JAK kinase assay (HTRF, phosphorylation of biotinylated peptide), JAK1. It is filed as biochemical. The following applies: Table A; ATP 1 mM. How it is done: Compounds herein were tested for inhibitory activity of JAK targets according to the following in vitro assay described in Park et al., Analytical Biochemistry 1999, 269, 94-104. The catalytic domains of human JAK1 (a.a. 837-1142) and JAK2 (a.a. 828-1132) with an N-terminal His tag were expressed using baculovirus in insect cells and purified. The catalytic activity of JAK1 and JAK2 was assayed by measuring the phosphorylation of a biotinylated peptide. The phosphorylated peptide was detected by homogenous time resolved fluorescence (HTRF). […] For the 1 mM IC50 measurements, ATP concentration in the reactions was 1 mM. Reactions were carried out at room temperature for 1 hour and then stopped with 20 μL 45 mM EDTA, 300 nM SA-APC, 6 nM Eu-Py20 in assay buffer (Perkin Elmer, Boston, Mass.). Binding to the Europium labeled antibody took place for 40 minutes and HTRF signal was measured on a Fusion plate reader (Perkin Elmer, Boston, Mass.). […] Data is indicated as ranges, wherein “+” is less than 5 nM; “++” is 5 nM to 25 nM; “+++” is greater than 25 nM to 100 nM; and “++++” is greater than 100 nM.

T2 sequence (P23458 849-1154): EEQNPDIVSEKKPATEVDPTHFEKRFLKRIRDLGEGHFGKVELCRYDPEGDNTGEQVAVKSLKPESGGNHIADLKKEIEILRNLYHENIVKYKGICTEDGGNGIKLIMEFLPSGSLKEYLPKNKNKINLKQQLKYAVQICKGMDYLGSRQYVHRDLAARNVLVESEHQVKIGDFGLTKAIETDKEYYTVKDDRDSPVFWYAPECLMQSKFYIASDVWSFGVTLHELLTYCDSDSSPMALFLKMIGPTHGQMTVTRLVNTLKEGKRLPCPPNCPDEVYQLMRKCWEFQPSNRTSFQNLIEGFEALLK
T1 sequence (O60674 828-1132): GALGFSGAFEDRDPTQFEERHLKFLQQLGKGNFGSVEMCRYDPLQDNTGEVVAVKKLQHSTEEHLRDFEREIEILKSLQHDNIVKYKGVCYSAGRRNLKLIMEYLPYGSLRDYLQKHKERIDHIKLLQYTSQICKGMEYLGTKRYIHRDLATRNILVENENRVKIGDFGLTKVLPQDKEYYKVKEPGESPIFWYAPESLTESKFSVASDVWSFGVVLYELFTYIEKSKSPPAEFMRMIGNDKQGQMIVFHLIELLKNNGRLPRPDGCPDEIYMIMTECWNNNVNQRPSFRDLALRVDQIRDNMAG

As for `CNC(=O)c1cc(F)cc(OC2CCN(CC(CC#N)n3cc(-c4ncnc5[nH]ccc45)cn3)CC2)c1` (stereo not shown) [Example 7, 3-[(1-{3-Cyano-2-[4-(7H-pyrrolo[2,3-d]pyrimidin-4-yl)-1H-pyrazol-1-yl]propyl}piperidin-4-yl)oxy]-5-fluoro-N-methylbenzamide tris(trifluoroacetate)], the IC50 in test [1] is 5 to 25 nM; in test [2], below 5 nM.
In the same order, the values of `CN(C)C(=O)c1cc(F)cc(OC2CCN(CC(CC#N)n3cc(-c4ncnc5[nH]ccc45)cn3)CC2)c1` (stereo not shown) [Example 8, 3-[(1-{3-Cyano-2-[4-(7H-pyrrolo[2,3-d]pyrimidin-4-yl)-1H-pyrazol-1-yl]propyl}piperidin-4-yl)oxy]-5-fluoro-N,N-dimethylbenzamide tris(trifluoroacetate)] are 5 to 25 nM and below 5 nM.
For `CCNC(=O)c1cc(F)cc(OC2CCN(CC(CC#N)n3cc(-c4ncnc5[nH]ccc45)cn3)CC2)c1` (stereo not shown) [Example 9, 3-[(1-{3-Cyano-2-[4-(7H-pyrrolo[2,3-d]pyrimidin-4-yl)-1H-pyrazol-1-yl]propyl}piperidin-4-yl)oxy]-N-ethyl-5-fluorobenzamide], the IC50 in test [1] was 5 to 25 nM; in test [2] it was below 5 nM.
Consider `N#CCC(CN1CCC(Oc2cc(F)cc(C(=O)NC3CC3)c2)CC1)n1cc(-c2ncnc3[nH]ccc23)cn1` (stereo not shown) [Example 10, 3-[(1-{3-Cyano-2-[4-(7H-pyrrolo[2,3-d]pyrimidin-4-yl)-1H-pyrazol-1-yl]propyl}piperidin-4-yl)oxy]-N-cyclopropyl-5-fluorobenzamide], for which the IC50 was 5 to 25 nM in test [1] and below 5 nM in test [2].
For `CC(C)NC(=O)c1cc(F)cc(OC2CCN(CC(CC#N)n3cc(-c4ncnc5[nH]ccc45)cn3)CC2)c1` (stereo not shown) [Example 11, 3-[(1-{3-Cyano-2-[4-(7H-pyrrolo[2,3-d]pyrimidin-4-yl)-1H-pyrazol-1-yl]propyl}piperidin-4-yl)oxy]-5-fluoro-N-isopropylbenzamide tris(trifluoroacetate)], in that order: 5 to 25 nM and below 5 nM.
For `N#CCCNC(=O)c1cc(F)cc(OC2CCN(CC(CC#N)n3cc(-c4ncnc5[nH]ccc45)cn3)CC2)c1` (stereo not shown) [Example 12, N-(2-Cyanoethyl)-3-[(1-{3-cyano-2-[4-(7H-pyrrolo[2,3-d]pyrimidin-4-yl)-1H-pyrazol-1-yl]propyl}piperidin-4-yl)oxy]-5-fluorobenzamide tris(trifluoroacetate)], in that order: 5 to 25 nM and below 5 nM.
In the same order, the values of `N#CCC(CN1CCC(Oc2cc(F)cc(C(=O)N3CCCC3)c2)CC1)n1cc(-c2ncnc3[nH]ccc23)cn1` (stereo not shown) [Example 13, 4-{4-[3-Fluoro-5-(pyrrolidin-1-ylcarbonyl)phenoxy]piperidin-1-yl}-3-[4-(7H-pyrrolo[2,3-d]pyrimidin-4-yl)-1H-pyrazol-1-yl]butanenitrile tris(trifluoroacetate)] are 5 to 25 nM and below 5 nM.
In the case of `N#CCC(CN1CCC(Oc2cc(F)cc(C(=O)NCCC(N)=O)c2)CC1)n1cc(-c2ncnc3[nH]ccc23)cn1` (stereo not shown) [Example 14, N-(3-Amino-3-oxopropyl)-3-[1(1-{3-cyano-2-[4-(7H-pyrrolo[2,3-d]pyrimidin-4-yl)-1H-pyrazol-1-yl]propyl}piperidin-4-yl)oxy]-5-fluorobenzamide tris(trifluoroacetate)], the IC50 was 5 to 25 nM in test [1] and below 5 nM in test [2].
In the same order, the values of `CC(C)(C)NC(=O)c1cc(F)cc(OC2CCN(CC(CC#N)n3cc(-c4ncnc5[nH]ccc45)cn3)CC2)c1` (stereo not shown) [Example 15, N-(tert-Butyl)-3-[(1-{3-cyano-2-[4-(7H-pyrrolo[2,3-d]pyrimidin-4-yl)-1H-pyrazol-1-yl]propyl}piperidin-4-yl)oxy]-5-fluorobenzamide tris(trifluoroacetate)] are below 5 nM and below 5 nM.
Take `N#CCC(CN1CCC(Oc2cc(F)cc(C(=O)NCCN3CCOCC3)c2)CC1)n1cc(-c2ncnc3[nH]ccc23)cn1` (stereo not shown) [Example 16, 3-[(1-{3-Cyano-2-[4-(7H-pyrrolo[2,3-d]pyrimidin-4-yl)-1H-pyrazol-1-yl]propyl}piperidin-4-yl)oxy]-5-fluoro-N-(2-morpholin-4-ylethyl)benzamide tris(trifluoroacetate)]: the IC50 was 5 to 25 nM in test [1] and below 5 nM in test [2].
As to `N#CCC(CN1CCC(Oc2cc(F)cc(C(=O)N3CCCCC3)c2)CC1)n1cc(-c2ncnc3[nH]ccc23)cn1` (stereo not shown) [Example 17, 4-{4-[3-Fluoro-5-(piperidin-1-ylcarbonyl)phenoxy]piperidin-1-yl}-3-[4-(7H-pyrrolo[2,3-d]pyrimidin-4-yl)-1H-pyrazol-1-yl]butanenitrile], the figures for the 50% inhibitory concentration (IC50) in test [1] and in test [2] were 5 to 25 nM and below 5 nM, respectively.
In the same order, the values of `N#CCC(CN1CCC(Oc2cc(F)cc(C(=O)N3CCOCC3)c2)CC1)n1cc(-c2ncnc3[nH]ccc23)cn1` (stereo not shown) [Example 18, 4-{4-[3-Fluoro-5-(morpholin-4-ylcarbonyl)phenoxy]piperidin-1-yl}-3-[4-(7H-pyrrolo[2,3-d]pyrimidin-4-yl)-1H-pyrazol-1-yl]butanenitrile] are 5 to 25 nM and below 5 nM.
For the compound `N#CCC(CN1CCC(Oc2cc(F)cc(C(=O)N3CCC(F)(F)C3)c2)CC1)n1cc(-c2ncnc3[nH]ccc23)cn1` (stereo not shown) [Example 19, 4-(4-{3-[(3,3-Difluoropyrrolidin-1-yl)carbonyl]-5-fluorophenoxy}piperidin-1-yl)-3-[4-(7H-pyrrolo[2,3-d]pyrimidin-4-yl)-1H-pyrazol-1-yl]butanenitrile], the IC50 is 5 to 25 nM in test [1] and below 5 nM in test [2].
Take `CN(Cc1cc(F)cc(OC2CCN(CC(CC#N)n3cc(-c4ncnc5[nH]ccc45)cn3)CC2)c1)C1CC1` (stereo not shown) [Example 21, 4-[4-(3-{[cyclopropyl(methyl)amino]methyl}-5-fluorophenoxy)piperidin-1-yl]-3-[4-(7H-pyrrolo[2,3-d]pyrimidin-4-yl)-1H-pyrazol-1-yl]butanenitrile]: the IC50 in test [1] was above 100 nM; in test [2], below 5 nM.
For `N#CCC(CN1CCC(Oc2cc(F)cc(CN3CCC3)c2)CC1)n1cc(-c2ncnc3[nH]ccc23)cn1` (stereo not shown) [Example 22], in that order: 25 to 100 nM and below 5 nM.
In the same order, the values of `N#CCC(CN1CCC(Oc2cc(F)cc(CNC3CCC3)c2)CC1)n1cc(-c2ncnc3[nH]ccc23)cn1` (stereo not shown) [Example 23, 4-(4-{3-[(cyclobutylamino)methyl]-5-fluorophenoxy}piperidin-1-yl)-3-[4-(7H-pyrrolo[2,3-d]pyrimidin-4-yl)-1H-pyrazol-1-yl]butanenitrile tetrakis(trifluoroacetate)] are 25 to 100 nM and 5 to 25 nM.
In the same order, the values of `N#CCC(CN1CCC(Oc2cc(F)cc(CN3CCCC3)c2)CC1)n1cc(-c2ncnc3[nH]ccc23)cn1` (stereo not shown) [Example 24, 4-{4-[3-fluoro-5-(pyrrolidin-1-ylmethyl)phenoxy]piperidin-1-yl}-3-[4-(7H-pyrrolo[2,3-d]pyrimidin-4-yl)-1H-pyrazol-1-yl]butanenitrile tetrakis(trifluoroacetate)] are 25 to 100 nM and below 5 nM.
In the case of `N#CCC(CN1CCC(Oc2cc(F)cc(CN3CCCCC3)c2)CC1)n1cc(-c2ncnc3[nH]ccc23)cn1` (stereo not shown) [Example 25, 4-{4-[3-fluoro-5-(piperidin-1-ylmethyl)phenoxy]piperidin-1-yl}-3-[4-(7H-pyrrolo[2,3-d]pyrimidin-4-yl)-1H-pyrazol-1-yl]butanenitrile], the IC50 in test [1] is 5 to 25 nM; in test [2], below 5 nM.
For `N#CCC(CN1CCC(Oc2cc(F)cc(CN3CCOCC3)c2)CC1)n1cc(-c2ncnc3[nH]ccc23)cn1` (stereo not shown) [Example 26, 4-{4-[3-fluoro-5-(morpholin-4-ylmethyl)phenoxy]piperidin-1-yl}-3-[4-(7H-pyrrolo[2,3-d]pyrimidin-4-yl)-1H-pyrazol-1-yl]butanenitrile], in that order: above 100 nM and 5 to 25 nM.
For `N#CCC(CN1CCC(Oc2cc(F)cc(CN3CCC(F)(F)C3)c2)CC1)n1cc(-c2ncnc3[nH]ccc23)cn1` (stereo not shown) [Example 27, 4-(4-{3-[(3,3-difluoropyrrolidin-1-yl)methyl]-5-fluorophenoxy}piperidin-1-yl)-3-[4-(7H-pyrrolo[2,3-d]pyrimidin-4-yl)-1H-pyrazol-1-yl]butanenitrile], in that order: above 100 nM and 5 to 25 nM.
